Data set [1] deals with ALP. Description: Evaluation of sensitivity for ALP with ALP inhibitor p-BTO pre-treatment. The format is biochemical. The settings on record: for sensitivity for ALP: with and without p-BTO pre-treatment. As for the experimental part:
After pre-treating with the ALP inhibitor p-BTO (p-bromotetramisole oxalate) at 1-2.5 mM, the fluorescent probe was mixed with ALP.

Data set [2] concerns ALP. Description: Fluorescence response depending on ALP concentration. The format is biochemical. The conditions noted are these: for new absorption peak in the presence of ALP: probe 5 μM, ALP 0.1 UmL^−1, Tris-HCl 10 mM, pH 7.4; for fluorescence due to dephosphorylation of ALP: λex=685 nm. On the procedure: Reactivity depending on ALP concentration was evaluated for the NIR-Phos-1 and NIR-Phos-2 fluorescent probes. After dissolving the fluorescent probe (5 μM) in a Tri-HCl buffer (10 mM, pH 7.4), the fluorescence spectrum occurring as a result of reaction with ALP (0.1 UmL^−1) was investigated.
From FIG. 5B and FIG. 5D, it can be seen that fluorescence spectra are changed variously by adding a Tris-HCl buffer (10 mM, pH 7.4) to ALP (10^−5 to 1.0 UmL^−1) of various concentrations.

For data set [3], the system named is ALP. As to the kind of experiment: Evaluation of selective ALP detection. The format is biochemical. The conditions noted are these: versus BSA, trypsin, lysozyme, AcHE, GOx, uricase, thrombin. An excerpt: ALP, BSA, trypsin, lysozyme, acetylcholinesterase (AcHE), glucose oxidase (GOx), uricase and thrombin were used for the evaluation.
Data set [4] is described as follows: Fluorescence stability (photostability) test. It counts as physicochemical. The settings on record: 685 nm light, 150-W xenon lamp, 1 hour, Tris-HCl 10 mM, pH 7.4. On the procedure:
The photostability of a fluorescent probe is important for in-vitro and in-vivo fluorescence detection. Therefore, the photostability of the NIR-Phos-1 and NIR-Phos-2 fluorescent probes was evaluated by irradiating light at 685 nm from a 150-W xenon lamp for 1 hour in a Tris-HCl buffer (10 mM, pH 7.4) and measuring the change in fluorescence intensity.

Data set [5] can be described thus: Affinity for calcium salts, NIR fluorescence imaging. The format is binding. The conditions noted are these: PBS buffer. As for the experimental part: The affinity of the NIR-Phos-1 and NIR-Phos-2 fluorescent probes for a calcium salt-containing scaffold was evaluated. As the scaffold, calcium carbonate (CC), calcium phosphate (CP), hydroxyapatite (HA), calcium perchlorate (CPC), calcium chloride (CCH) and calcium nitrate (CN) were used. The fluorescent probe and the scaffold were immersed in a PBS buffer and subjected to NIR fluorescence imaging.

Data set [6] can be described thus: Affinity for scaffold, light absorption of probe solution after adsorption. The format is binding. The settings on record: CDHA scaffold.
Assay in data set [7]: as above
The settings on record: CDHA/DCPD scaffold. It counts as binding.

The record followed here is patent publication US10267737B2, “Near-infrared fluorescent probe for detecting alkaline phosphatase and manufacturing method thereof” (KOREA RESEARCH INSTITUTE OF BIOSCIENCE AND BIOTECHNOLOGY, priority 2016, dated 2019).

Structures are written as SMILES.

Consider `CC[N+]1=C(/C=C/C2=C3Oc4cc(OCc5ccc(OP(=O)(O)O)cc5)ccc4C=C3CCC2)C(C)(C)c2cc(S(=O)(=O)[O-])ccc21` [NIR-Phos-1, (E)-1-ethyl-3,3-dimethyl-2-(2-(6-((4-(phosphonooxy)benzyl)oxy)-2,3-dihydro-1H-xanthen-4-yl)vinyl)-3H-indol-1-ium-5-sulfonate], for which, in data set [1], the “sensitivity for ALP” value is on record as “good sensitivity”. Also, the “new absorption peak in the presence of ALP” value in data set [2] turned out to be 710 nm. The “fluorescence due to dephosphorylation of ALP” value in data set [2] was 710 nm. In addition, the “selective detection of ALP” value in data set [3] is recorded as “selectively detect ALP only”. In addition, the “photostability (change in fluorescence intensity)” value in data set [4] is given as “superior photostability”. Besides, the “affinity for hydroxyapatite (HA) particles compared to calcium salts CC, CP, CPC, CCH, CN” value in data set [5] is “higher affinity”. Besides, the “decrease of light absorption by the probe solution after adsorption” value in data set [6] turned out to be 29.4%; in data set [7] it was 3.8%.

Take `Brc1ccc(C2CN3CCSC3=N2)cc1.O=C(O)C(=O)O` (stereo not drawn) [p-BTO, p-bromotetramisole oxalate, reference compound]: the “hydrolysis of the fluorescent probe and ALP” value in data set [1] (p-BTO 1-2.5 mM pre-treatment, fluorescence intensity decreased gradually as p-BTO concentration increased) is listed as “inhibited”.

`CC[N+]1=C(/C=C/C2=C3Oc4cc(OP(=O)(O)O)ccc4C=C3CCC2)C(C)(C)c2cc(S(=O)(=O)[O-])ccc21` [NIR-Phos-2, (E)-1-ethyl-3,3-dimethyl-2-(2-(6-(phosphonooxy)-2,3-dihydro-1H-xanthen-4-yl)vinyl)-3H-indol-1-ium-5-sulfonate]: in data set [1], the “sensitivity for ALP” value was “good sensitivity”. In data set [2], the “new absorption peak in the presence of ALP” value turned out to be 710 nm and the “fluorescence due to dephosphorylation of ALP” value was found to be 710 nm. Besides, the “selective detection of ALP” value in data set [3] is “selectively detect ALP only”. In addition, in data set [4], the “photostability (change in fluorescence intensity)” value was “superior photostability”. Besides, the “affinity for hydroxyapatite (HA) particles compared to calcium salts CC, CP, CPC, CCH, CN” value in data set [5] was “higher affinity”.
